Measured values as given in patent publication US20180008523A1, “ONYCHOMYCOSIS TREATMENT SYSTEM AND METHOD” (DEVICEFARM, INC., priority 2014, published 2018).
“And” between values parts separate entries of the source, which are not always exact repeats. Identical values can stand only once.

Test system: T. rubrum
Experiment: Eradication of T. rubrum through a bovine hoof disk (modified Franz-type diffusion cell), colony count after treatment
Assay type: cell-based, Trichophyton rubrum
Conditions: 3 ul PFD on hoof immediately before 45 minutes of plasma treatment; seven days of incubation; 94% for one hoof, 100% (no colonies) for the other two
Excerpt: Eradication of T. rubrum through a bovine hoof using Perfluorode alin (PFD) facilitator and an SMD plasma-generating device.
The in vitro test model uses a bovine, hoof disk, a surrogate nail model established in the literature. It is used along with a modified Franz-type diffusion cell to isolate the fungal contaminated side of the hoof in an enclosed chamber that ensures the treatment path is through the hoof barrier. An equal amount of T. rubrum is pipetted onto each hoof disc consisting of a 100 ul suspension. Each hoof disk is then placed fungus side down into the modified Franz cell and sealed with an O-ring. Each hoof is then plasma treated for 45 minutes where the average thickness of hoof disks is 0.35 mm. Eight hoof disks were treated as: • a. Control that is placed directly into the wash tube without any treatment • b. Two PFD-only hooves had 3 ul PFD pipetted directly onto the hoof opposite side from the fungus. This was allowed to sit for 45 minutes in the hood before placing in the wash tube. • c. Two Plasma treatment only hooves get just a 45 minute plasma is treatment (i.e., no PFD). • d. Three Plasma treatment with PFD hooves had 3 ul PFD pipetted directly onto the hoof opposite side from the fungus immediately before applying plasma treatment.
After treatment, each hoof went through a fungal collection protocol consisting of washing, dilution, plating and incubation. […]

FC1(F)C(F)(F)C(F)(F)C2(F)C(F)(F)C(F)(F)C(F)(F)C(F)(F)C2(F)C1(F)F (stereo not shown) [PFD, perfluorodecalin]
colony reduction compared to control: 94% and 100%
